Assay results reported in PubChem BioAssay AID1259407 (Chemical Carcinogenesis Research Information System (CCRIS), 2018).
Activity calls are given as the source filed them. How the calls were made is not given here.

Test system: CCRIS mutagenicity, Ames/micronucleus/aberration tests
Assay: CCRIS mutagenicity studies
Details: Test System: AMES SALMONELLA TYPHIMURIUM

CN(C)N=Nc1ccc(Br)cc1
mutagenic call (Strain/Indicator: TA92, Metabolic Activation: MOUSE, LIVER, S-9, POLYCHLORINATED BIPHENYLS, Method: PREINCUBATION): inactive; negative | mutagenic call (Strain/Indicator: TA92, Metabolic Activation: MOUSE, LIVER, S-9, POLYCHLORINATED BIPHENYLS, Method: STANDARD PLATE): inactive; negative | mutagenic call (Strain/Indicator: TA92, Metabolic Activation: NONE, Method: STANDARD PLATE): inactive; negative | mutagenic call (Strain/Indicator: TA97, Metabolic Activation: MOUSE, LIVER, S-9, POLYCHLORINATED BIPHENYLS, Method: PREINCUBATION): inactive; negative | mutagenic call (Strain/Indicator: TA97, Metabolic Activation: MOUSE, LIVER, S-9, POLYCHLORINATED BIPHENYLS, Method: STANDARD PLATE): inactive; negative | mutagenic call (Strain/Indicator: TA97, Metabolic Activation: NONE, Method: STANDARD PLATE): inactive; negative | mutagenic call (Strain/Indicator: TA98, Metabolic Activation: MOUSE, LIVER, S-9, POLYCHLORINATED BIPHENYLS, Method: PREINCUBATION): active; positive | mutagenic call (Strain/Indicator: TA98, Metabolic Activation: MOUSE, LIVER, S-9, POLYCHLORINATED BIPHENYLS, Method: STANDARD PLATE): inactive; negative | mutagenic call (Strain/Indicator: TA98, Metabolic Activation: NONE, Method: STANDARD PLATE): inactive; negative | mutagenic call (Strain/Indicator: TA100, Metabolic Activation: MOUSE, LIVER, S-9, POLYCHLORINATED BIPHENYLS, Method: PREINCUBATION): inactive; negative | mutagenic call (Strain/Indicator: TA100, Metabolic Activation: MOUSE, LIVER, S-9, POLYCHLORINATED BIPHENYLS, Method: STANDARD PLATE): inactive; negative | mutagenic call (Strain/Indicator: TA100, Metabolic Activation: NONE, Method: STANDARD PLATE): inactive; negative | mutagenic call (Strain/Indicator: TA1535, Metabolic Activation: MOUSE, LIVER, S-9, POLYCHLORINATED BIPHENYLS, Method: PREINCUBATION): active; positive | mutagenic call (Strain/Indicator: TA1535, Metabolic Activation: MOUSE, LIVER, S-9, POLYCHLORINATED BIPHENYLS, Method: STANDARD PLATE): inactive; negative | mutagenic call (Strain/Indicator: TA1535, Metabolic Activation: NONE, Method: STANDARD PLATE): inactive; negative | mutagenic call (Strain/Indicator: TA1537, Metabolic Activation: MOUSE, LIVER, S-9, POLYCHLORINATED BIPHENYLS, Method: PREINCUBATION): active; positive | mutagenic call (Strain/Indicator: TA1537, Metabolic Activation: MOUSE, LIVER, S-9, POLYCHLORINATED BIPHENYLS, Method: STANDARD PLATE): active; positive | mutagenic call (Strain/Indicator: TA1537, Metabolic Activation: NONE, Method: STANDARD PLATE): active; positive | mutagenic call (Strain/Indicator: TA1538, Metabolic Activation: MOUSE, LIVER, S-9, POLYCHLORINATED BIPHENYLS, Method: PREINCUBATION): inactive; negative | mutagenic call (Strain/Indicator: TA1538, Metabolic Activation: MOUSE, LIVER, S-9, POLYCHLORINATED BIPHENYLS, Method: STANDARD PLATE): active; positive | mutagenic call (Strain/Indicator: TA1538, Metabolic Activation: NONE, Method: STANDARD PLATE): inactive; negative
